Earlier results in patent US5780494A, “Piperidinyl-terminated alkylamino ethynl alanine amino diol compounds for treatment of hypertension” (G. D. Searle & Co., priority 1997, dated 1998).
Square brackets hold non-standard residues; d marks the D form. Peptide text beside a SMILES is read from it. * marks the point of attachment. Sta = CC(C)C[C@H](N)[C@@H](O)CC(=O)O; Isovaleryl = CC(C)CC(=O)*

Experiments:
hog renin = conditions: after the injection of hog renin into nephrectomized rats

In the case of `CC(C)CC(=O)N[C@H](C(=O)N[C@H](C(=O)N[C@@H](CC(C)C)[C@@H](O)CC(=O)N[C@@H](C)C(=O)N[C@@H](CC(C)C)[C@@H](O)CC(=O)O)C(C)C)C(C)C` [pepstatin] (Isovaleryl-VV[Sta]A[Sta]-OH), the blood pressure reduction (hog renin) is given as “found to reduce blood pressure”, the inhibition of pepsin (pepsin) is given as “inhibitor” and the “inhibition of cathepsin D” value (cathepsin D) is given as “inhibitor”. For the same compound, the inhibition of renin (renin) was “inhibitor”.
